Earlier results on one compound are cited in patent US11337939B2 (PULMONEM INC., priority 2020, dated 2022).

In one series the test system is airway inflammation. To be noted: ferret.
In series [1] the test system is human bronchial epithelial cells. To be noted: stimulated with lipopolysaccharide.

On to `Nc1ccc(S(=O)(=O)c2ccc(N)cc2)cc1` [Dapsone, 4,4′-diaminodiphenyl sulfone], for which the airway inflammation result in the series on airway inflammation is reported as “resolves airway inflammation”. Also, under “from the gastrointestinal tract”, the “absorbed from the gastrointestinal tract” value is reported as 70%-80%. Also, the “time to peak serum concentration” value (serum) is 2 to 6 h. Besides, in series [1], the IL-8 secretion result is given as “inhibits IL-8 secretion”.
